Molecules are shown by their SMILES.

Usually inhibition stands for how much of the control response was suppressed. What is called IC50 is the concentration needed to halve the response being measured. Lower therefore signals higher potency.

One assay concerns Blood. Nature of the assay: Inhibition of thrombin-induced platelet aggregation in human blood at 100 uM by turbidimetric method. In kind it is functional.
`O=C(/C=C/c1ccnn(Cc2ccccc2)c1=O)c1ccccc1` registered an inhibition at 100 µM of 40%.

The test system of the next assay is Blood. In words: Inhibition of thrombin-induced platelet aggregation in human blood by turbidimetric method. In kind it is functional, tissue-based.
`Cc1[nH]c(=O)c(C#N)cc1-c1ccncc1` [MILRINONE]: the IC50 was 4.7 µM. This counts as single-digit micromolar. `O=C(/C=C/c1ccnn(-c2ccccc2)c1=O)c1ccccc1` came in with an IC50 of 17.6 µM. With `CN1CC(/C=C/C(=O)c2ccccc2)=C(/C=C/C(=O)c2ccccc2)C=N1`, it took 6.15 µM to reach half-maximal inhibition (IC50). Still for that read-out and setting: then `O=C(/C=C/c1ccc(=O)n(-c2ccccc2)n1)c1ccccc1`, with 12 µM; and `Cn1ncc(/C=C/C(=O)c2ccccc2)cc1=O`, with 15.7 µM; and `Cn1nccc(/C=C/C(=O)c2ccccc2)c1=O`, with 37.1 µM. Compound `Cn1nc(/C=C/C(=O)c2ccccc2)ccc1=O` returned a 50% inhibitory concentration (IC50) of 13.4 µM. Against the preceding compound, the IC50 is about 2.8-fold lower.

As to `O=C(/C=C/c1ccccc1)c1ccccc1` [CHALCONE], the IC50 stood at 163 µM. In the case of `O=C1C(CC[S+]([O-])c2ccccc2)C(=O)N(c2ccccc2)N1c1ccccc1` (centres undefined) [SULFINPYRAZONE], the IC50 turned out to be 509 µM. With `O=C(/C=C/C1=C(/C=C/C(=O)c2ccccc2)CN(c2ccccc2)N=C1)c1ccccc1`, the IC50 stood at 1.98 µM. Regarding `O=C(/C=C/c1ccc(=O)n(Cc2ccccc2)n1)c1ccccc1`, inhibition was half-maximal at 60 µM (IC50). The compound `O=C(/C=C/c1cnn(-c2ccccc2)c(=O)c1)c1ccccc1` displayed an IC50 of 3.3 µM. Compared with the last compound, the IC50 is about 18-fold lower. In the case of `O=C(/C=C/c1cnn(Cc2ccccc2)c(=O)c1)c1ccccc1`, inhibition was half-maximal at 4.2 µM (IC50).
